How the values were obtained:
[1] = tested on: S. aureus UBMS 90-2 Tet M; assay: microbe, parasite or virus in culture; type: cell-based; details: S. aureus UBMS 90-2 Tet M
E. coli UBMS 89-1 Tet M = assay: microbe, parasite or virus in culture; type: cell-based; details: E. coli UBMS 89-1 Tet M
[2] = tested on: Wild Type S30 (wild type ribosomes, E. coli strain MRE600, tetracycline sensitive); assay: E. coli in vitro protein translation system, wild type S30; details: for inhibition of protein synthesis occuring on wild type ribosomes: coupled transcription and translation system
[3] = tested on: S. hemolyticus AVHAH 88-3; assay: MIC, agar dilution; type: cell-based; details: S. hemolyticus AVHAH 88-3
[4] = tested on: Staphylococcus aureus strain Smith (tetracycline sensitive); assay: In vivo antibacterial evaluation, acute lethal infection in mice; details: animals infected with S. aureus Smith, 10080 min
E. coli PRP1 Tet A = assay: microbe, parasite or virus in culture; type: cell-based; details: E. coli PRP1 Tet A
[5] = tested on: E. coli MC 4100 TNIOC Tet B; assay: microbe, parasite or virus in culture; type: cell-based; details: E. coli MC 4100 TNIOC Tet B
[6] = tested on: E. coli UBMS 89-2 Tet sens.; assay: MIC, agar dilution; type: cell-based; details: E. coli UBMS 89-2 Tet sens.
E. coli J3272 Tet sens. = assay: MIC, agar dilution; type: cell-based
S. aureus IVES 1 983 = assay: MIC, agar dilution; type: cell-based; details: S. aureus IVES 1 983
S. aureus IVES 2943 = assay: MIC, agar dilution; type: cell-based; details: S. aureus IVES 2943
S. aureus UBMS 90-3 = assay: MIC, agar dilution; type: cell-based; details: S. aureus UBMS 90-3
E. coli UBMS 90-4 Tet M = assay: microbe, parasite or virus in culture; type: cell-based; details: E. coli UBMS 90-4 Tet M
[7] = tested on: Ps. acruginosa ATCC 27853; assay: MIC, agar dilution; type: cell-based; details: Ps. acruginosa ATCC 27853
S. aureus UBMS 88-4 = assay: MIC, agar dilution; type: cell-based; details: S. aureus UBMS 88-4
E. coli UBMS 90-5 = assay: MIC, agar dilution; type: cell-based
[8] = tested on: tetracycline sensitive and resistant Gram-positive and Gram-negative bacteria; assay: In vitro antibacterial activity, summary in words of Table I; type: cell-based; details: for in vitro activity against tetracycline resistant strains containing tetM and tetB resistance determinants: S. aureus UBMS 88-5, 90-1, 90-2, E. coli UBMS 89-1, 90-4, 88-1, TN10C tetB; for activity against recently isolated bacteria from clinical sources compared with minocycline: clinical isolates
[9] = tested on: S. aureus UBMS 88-7 Tet K; assay: microbe, parasite or virus in culture; type: cell-based; details: S. aureus UBMS 88-7 Tet K
the ribosome = assay: Reversibility of binding: bacterial growth resumes after washing; type: cell-based; details: bacterial growth resumes when the compound is removed from the cultures by washing
Source text: Therefore, the ability of these compounds to inhibit bacterial growth appears to be a direct consequence of its ability to inhibit protein synthesis at the ribosome level.

S. aureus ROSE (MP) = assay: MIC, agar dilution; type: cell-based; details: S. aureus ROSE (MP)
E. coli UBMS 88-1 Tet B = assay: microbe, parasite or virus in culture; type: cell-based; details: E. coli UBMS 88-1 Tet B; 18 hours at 35° C.
S. mariescens FPOR 8733 = assay: MIC, agar dilution; type: cell-based
[10] = tested on: S. aureus UBMS 90-1 Tet M; assay: microbe, parasite or virus in culture; type: cell-based; details: S. aureus UBMS 90-1 Tet M
E. coli J3272 Tet D = assay: microbe, parasite or virus in culture; type: cell-based; details: E. coli J3272 Tet D
S. aureus SMITH (MP) = assay: MIC, agar dilution; type: cell-based; details: S. aureus SMITH (MP)
S. aureus ATCC 29213 = assay: MIC, agar dilution; type: cell-based; details: S. aureus ATCC 29213
[11] = tested on: S. aureus UBMS 88-5 Tet M; assay: microbe, parasite or virus in culture; type: cell-based; details: S. aureus UBMS 88-5 Tet M
E. coli #311 (MP) = assay: MIC, agar dilution; type: cell-based; details: E. coli #311 (MP)
E. coli J3272 Tet C = assay: microbe, parasite or virus in culture; type: cell-based; details: E. coli J3272 Tet C
Enterococcus 12201 = assay: MIC, agar dilution; type: cell-based; details: Enterococcus 12201
E. coli ATCC 25922 = assay: MIC, agar dilution; type: cell-based; details: E. coli ATCC 25922
E. coli BAJ9003 IMP MUT = assay: microbe, parasite or virus in culture; type: cell-based; details: E. coli BAJ9003 IMP MUT
S. aureus NEMC 8769 = assay: MIC, agar dilution; type: cell-based; details: S. aureus NEMC 8769
E. coli J2175 = assay: MIC, agar dilution; type: cell-based; details: E. coli J2175

| Compound | MIC (E. coli UBMS 89-1 Tet M) [µg/mL] | % Inhibition Wild Type S30 ([2]; Conc. 0.06 mg/ml) [%] | % Inhibition Wild Type S30 ([2]; Conc. 1.0 mg/ml) [%] | inhibition of protein synthesis occuring on wild type ribosomes [2] | MIC [3] [µg/mL] | MIC (E. coli PRP1 Tet A) [µg/mL] | MIC [5] [µg/mL] | MIC [6] [µg/mL] | MIC (E. coli J3272 Tet sens.) [µg/mL] | MIC (S. aureus IVES 1 983) [µg/mL] | MIC (S. aureus IVES 2943) [µg/mL] | MIC (S. aureus UBMS 90-3) [µg/mL] | MIC (E. coli UBMS 90-4 Tet M) [µg/mL] | MIC [7] [µg/mL] | MIC (S. aureus UBMS 88-4) [µg/mL] | MIC (E. coli UBMS 90-5) [µg/mL] | activity against E. coli tetA, E. coli tetC and E. coli tetD [8] | in vitro activity against tetracycline resistant strains containing tetM and tetB resistance determinants [8] | activity against recently isolated bacteria from clinical sources compared with minocycline [8] | activity against susceptible strains compared with minocycline [8] | also measured |
| --- | --- | --- | --- | --- | --- | --- | --- | --- | --- | --- | --- | --- | --- | --- | --- | --- | --- | --- | --- | --- | --- |
| CC1CCN(CC(=O)Nc2cc(N(C)C)c3c(c2O)C(=O)C2=C(O)C4(O)C(=O)C(C(N)=O)=C(O)C(N(C)C)C4CC2C3)CC1.Cl.Cl (stereo not drawn) [G, [7S-(7alpha,10aalpha)]-N-[9-(Aminocarbonyl)4,7-bis(dimethylamino)-5,5a,6,6a,7,10,10a,12-octahydro-1,8,10a,ll-tetrahydroxy-10,12-dioxo-2-naphthacenyl]-4-methyl-l-piperidineacetamide dihydrochloride] | 0.5 | 90 | 99 | effectively inhibit protein synthesis | 1 | 2 | 2 | 2 | 1 | 0.5 | 0.5 | 0.5 | 1 | 32 | 0.5 | 2 | good activity | excellent | superior to that of minocycline | equallyas effective as minocycline | MIC [1]: 0.5 µg/mL; ED50 ([4]; administered intravenously): 1 to 2 mg/kg; ED50 ([4]; given orally): 4 to 8 mg/kg; MIC [9]: 0.5 µg/mL; reversibility of binding to the ribosome (the ribosome): bind reversibly; MIC (S. aureus ROSE (MP)): 1 µg/mL; MIC (E. coli UBMS 88-1 Tet B): 2 µg/mL; MIC (S. mariescens FPOR 8733): 16 µg/mL; MIC [10]: 0.5 µg/mL; MIC (E. coli J3272 Tet D): 0.25 µg/mL; MIC (S. aureus SMITH (MP)): 0.5 µg/mL |
| [4S-(4alpha,12aalpha)]-4,7-Bis(dimethylamino)-1,4,4a,5,5a,6,11,12a-octahydro-3,10, 12,12a-tetrahydroxy-1,11-dioxo-9-[[(2-propenylamino)acetyl]amino]-2-naphthacenecarboxamide dihydrochloride | 0.5 | 93 | 99 | effectively inhibit protein synthesis | 0.5 | 8 | 1 | 0.5 | 0.5 | 8 | 8 | 0.25 | 0.5 | 16 | 0.25 | 0.5 | good activity | excellent | superior to that of minocycline | equallyas effective as minocycline | MIC (S. aureus ATCC 29213): 0.25 µg/mL; MIC [11]: 0.25 µg/mL; MIC (E. coli #311 (MP)): 0.5 µg/mL; MIC (E. coli J3272 Tet C): 1 µg/mL; MIC (Enterococcus 12201): 0.25 µg/mL; MIC (E. coli ATCC 25922): 0.5 µg/mL; MIC [9]: 8 µg/mL; reversibility of binding to the ribosome (the ribosome): bind reversibly; MIC (E. coli BAJ9003 IMP MUT): 0.12 µg/mL; MIC (S. aureus ROSE (MP)): 8 µg/mL; MIC (S. aureus NEMC 8769): 0.12 µg/mL; MIC (E. coli UBMS 88-1 Tet B): 1 µg/mL; MIC (S. mariescens FPOR 8733): 8 µg/mL; MIC [10]: 0.5 µg/mL; MIC (E. coli J3272 Tet D): 0.25 µg/mL; MIC (E. coli J2175): 0.5 µg/mL |

— US5328902A, “7-(substituted)-9-[(substituted glycyl)amido]-6-demethyl-6-deoxytetracyclines” (American Cyanamid Co., priority 1992, dated 1994)
